21 molecules from patent publication US20240101544A1, “INHIBITORS OF QPCTL AND QPCT” (priority 2022, published 2024) can be followed below.

Structures are written as SMILES. Some results are limits rather than exact numbers.

Assay [1] deals with T1, QPCTL (Homo sapiens (Human), UniProt Q9NXS2). Put plainly: QPCTL Enzymatic Activity Assay (coupled-enzyme fluorescent assay, H-Gln-AMC substrate). It is filed as biochemical. The conditions noted are these: recombinant truncated human QPCTL 10-12 nM, 10 μM H-Gln-AMC; read-out: QPCTL Inhibition IC50.
Target sequence in this assay (Q9NXS2 53-382): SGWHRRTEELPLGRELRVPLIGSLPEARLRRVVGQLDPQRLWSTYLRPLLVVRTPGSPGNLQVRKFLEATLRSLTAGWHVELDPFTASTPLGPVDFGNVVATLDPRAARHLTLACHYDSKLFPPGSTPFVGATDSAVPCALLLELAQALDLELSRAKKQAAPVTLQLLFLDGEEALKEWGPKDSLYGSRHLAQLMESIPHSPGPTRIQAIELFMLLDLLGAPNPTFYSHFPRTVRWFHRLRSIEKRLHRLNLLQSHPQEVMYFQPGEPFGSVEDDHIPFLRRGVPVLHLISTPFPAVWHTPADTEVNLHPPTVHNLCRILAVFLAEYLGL
Assay [2] addresses T1, QPCTL. As to the kind of experiment: Inhibition of Cellular QPCTL Activity - FACS flow cytometry, CC2C6 anti-CD47 staining of Ramos cells. The format is cell-based. Particulars: Ramos human Burkitts Lymphoma cells, 72-96 hours, % CC2C6-positive cells. As for the experimental part:
Inhibition of Cellular QPCTL Activity—Fluorescence-Activated Cell Sorting (FACS) Flow Cytometry
The cells were incubated for 72-96 hours at 37° C. and 5% CO2. At the end of incubation period, cells were transferred to tubes and spun down at 1200 rpm for 5 minutes. […] After antibody staining, the cells were washed with FACS buffer then stained with SYTOX™ Blue dead cell stain at a dilution of 1:1000. Cells were analyzed on a BD FACS Melody and a positive staining gate on live cells was set using the 0.1% DMSO controls. […] Flow cytometry data were analyzed by FlowJo software and concentration-response-curves and IC50 values were generated using Collaborative Drug Discovery software.
Target sequence in this assay (Q9NXS2 whole entry, the tested form may be a part): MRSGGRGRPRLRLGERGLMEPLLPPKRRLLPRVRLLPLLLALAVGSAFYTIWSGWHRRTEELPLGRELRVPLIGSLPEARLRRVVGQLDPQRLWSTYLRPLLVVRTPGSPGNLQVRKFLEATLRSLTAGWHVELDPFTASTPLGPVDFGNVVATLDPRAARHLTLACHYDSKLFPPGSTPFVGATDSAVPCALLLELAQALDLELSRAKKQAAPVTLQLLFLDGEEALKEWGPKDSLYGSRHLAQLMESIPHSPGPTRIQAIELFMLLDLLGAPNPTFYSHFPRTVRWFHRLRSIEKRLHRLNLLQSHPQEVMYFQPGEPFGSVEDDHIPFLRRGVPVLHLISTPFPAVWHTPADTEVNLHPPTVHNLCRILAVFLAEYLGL
(In flow cytometry, cells or beads pass a laser one at a time.)

A further assay concerns the target QPCT (rhQPCT) (Homo sapiens (Human), UniProt Q16769). Put plainly: QPCT Enzymatic Activity Assay (coupled-enzyme fluorescent assay, H-Gln-AMC substrate). It is filed as biochemical. Particulars: rhQPCT 10-12 nM, 10 μM H-Gln-AMC; read-out: QPCT Inhibition IC50. A digest of the protocol: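 Coupled assay: recombinant human QPCT converts H-Gln-AMC (10 μM final) to pyroglutamyl-AMC, 60 min at 37 °C, stopped by boiling; PGPEP-1 then releases AMC.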

For assay [3], the target named is T1, QPCTL. Put plainly: Inhibition of Cellular QPCTL Activity - Imaging Assay, CC2C6 anti-CD47 staining of DLD-1 cells. It is filed as cell-based. Particulars: 72 hours, CC2C6 anti-CD47 high-content imaging. The procedure:
Inhibition of Cellular QPCTL Activity—Imaging Assay
The cells were incubated for 72 hours at 37° C. and 5% CO2. […] After primary antibody staining, the cells were fixed with 4% paraformaldehyde in the incubation buffer for 15 minutes at room temperature. […] Cells were analyzed on a ImageXpress Pico Automated Cell Imaging System (Molecular Devices) using 10× objective (3×3 fields).
Target sequence in this assay (Q9NXS2 whole entry, the tested form may be a part): as above

Chain of QPCT (rhQPCT) (Q16769 29-361): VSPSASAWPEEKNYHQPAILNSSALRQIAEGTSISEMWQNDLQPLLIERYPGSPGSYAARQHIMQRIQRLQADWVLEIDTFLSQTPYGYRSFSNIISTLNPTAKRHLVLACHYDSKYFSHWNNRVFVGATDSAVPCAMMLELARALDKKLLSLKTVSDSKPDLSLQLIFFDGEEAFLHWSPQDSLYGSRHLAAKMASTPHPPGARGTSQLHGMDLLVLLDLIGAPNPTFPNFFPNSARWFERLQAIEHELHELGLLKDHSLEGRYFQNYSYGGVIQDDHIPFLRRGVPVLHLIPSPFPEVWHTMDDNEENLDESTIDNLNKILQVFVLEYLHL

Turning to `Cn1cnnc1C1CCN(c2c(C#N)cccc2-c2cncc3c2cnn3C)CC1` [Example 4, 3-{1-methyl-1H-pyrazolo[3,4-c]pyridin-4-yl}-2-[4-(4-methyl-4H-1,2,4-triazol-3-yl)piperidin-1-yl]benzonitrile], the IC50 (as a rule, the concentration that gives 50% inhibition) is 100 to 1000 nM on QPCTL [1], 1000 to 10000 nM at QPCTL [2] and 100 to 1000 nM on QPCT (rhQPCT).
`Cn1cnnc1C1CCN(c2c(C#N)cccc2-c2ccc3nonc3c2)CC1` [Example 19, 3-(2,1,3-benzoxadiazol-5-yl)-2-[4-(4-methyl-4H-1,2,4-triazol-3-yl)piperidin-1-yl]benzonitrile]: the IC50 on QPCTL [1] is 100 to 1000 nM; on QPCTL [2] it was 1000 to 10000 nM; on QPCT (rhQPCT), < 100 nM.
The corresponding values for `Cn1cnnc1C1CCN(c2c(C#N)cccc2-c2ccnnc2)CC1` [Example 11, 2-[4-(4-methyl-4H-1,2,4-triazol-3-yl)piperidin-1-yl]-3-(pyridazin-4-yl)benzonitrile] are < 100 nM, < 100 nM and < 100 nM.
For `Cn1cnnc1C1CCN(c2c(C#N)cccc2-c2cnccc2Cl)CC1` [Example 10, 3-(4-chloropyridin-3-yl)-2-[4-(4-methyl-4H-1,2,4-triazol-3-yl)piperidin-1-yl]benzonitrile], in that order: < 100 nM, 100 to 1000 nM and < 100 nM.
For `CN(C)CCOc1ccncc1-c1cccc(C#N)c1N1CCC(c2nncn2C)CC1` [Example 8, 3-{4-[2-(dimethylamino)ethoxy]pyridin-3-yl}-2-[4-(4-methyl-4H-1,2,4-triazol-3-yl)piperidin-1-yl]benzonitrile], in that order: < 100 nM, 1000 to 10000 nM and < 100 nM.
For the molecule `Cn1cnnc1C1CCN(c2c(-c3ccnnc3)ccc(Cl)c2C#N)CC1` [Example 33, 6-chloro-2-[4-(4-methyl-4H-1,2,4-triazol-3-yl)piperidin-1-yl]-3-(pyridazin-4-yl)benzonitrile], the IC50 on QPCTL [1], at QPCTL [2] and at QPCT (rhQPCT) was < 100 nM in each case.
In the case of `COc1ccc(-c2ccnnc2)c(N2CCC(c3nncn3C)CC2)c1C#N` [Example 26, 6-methoxy-2-[4-(4-methyl-4H-1,2,4-triazol-3-yl)piperidin-1-yl]-3-(pyridazin-4-yl)benzonitrile], the IC50 at QPCTL [1], against QPCTL [2] and on QPCT (rhQPCT) was < 100 nM each time.
Turning to `COc1ccncc1-c1cccc(C#N)c1N1CCC(c2nncn2C)CC1` [Example 3, 3-(4-methoxypyridin-3-yl)-2-[4-(4-methyl-4H-1,2,4-triazol-3-yl)piperidin-1-yl]benzonitrile], the results for the 50% inhibitory concentration (IC50) on QPCTL [1], against QPCTL [2] and on QPCT (rhQPCT) were < 100 nM, 100 to 1000 nM and < 100 nM, respectively.
Turning to `Cn1cnnc1C1CCN(c2c(-c3ccc(F)nc3)ccc(Cl)c2C#N)CC1` [Example 30, 6-chloro-3-(6-fluoropyridin-3-yl)-2-[4-(4-methyl-4H-1,2,4-triazol-3-yl)piperidin-1-yl]benzonitrile], the half-inhibitory concentration (IC50) at QPCTL [1], on QPCTL [2] and on QPCT (rhQPCT) was < 100 nM in each case.
Take `Cn1cnnc1C1CCN(c2c(-c3ccc(F)nc3)ccc(-c3ccccc3)c2C#N)CC1` [Example 28, 4-(6-fluoropyridin-3-yl)-3-[4-(4-methyl-4H-1,2,4-triazol-3-yl)piperidin-1-yl]-[1,1′-biphenyl]-2-carbonitrile]: the IC50 on QPCTL [1], against QPCTL [2] and at QPCT (rhQPCT) was < 100 nM throughout.
Regarding `Cn1cnnc1C1CCN(c2c(C#N)cccc2-c2cncc3c2ccn3C)CC1` [Example 12, 3-{1-methyl-1H-pyrrolo[2,3-c]pyridin-4-yl}-2-[4-(4-methyl-4H-1,2,4-triazol-3-yl)piperidin-1-yl]benzonitrile], the IC50 was < 100 nM on QPCTL [1], 1000 to 10000 nM at QPCTL [2] and < 100 nM on QPCT (rhQPCT).
Regarding `Cn1cnnc1C1CCN(c2c(C#N)cccc2-c2cccnc2)CC1` [Example 2, 2-[4-(4-methyl-4H-1,2,4-triazol-3-yl)piperidin-1-yl]-3-(pyridin-3-yl)benzonitrile], the IC50 was < 100 nM on QPCTL [1], 100 to 1000 nM at QPCTL [2] and < 100 nM at QPCT (rhQPCT).
As to `Cn1cnnc1C1CCN(c2c(C#N)cccc2-c2ccc(OCCO)nc2)CC1` [Example 6, 3-[6-(2-hydroxyethoxy)pyridin-3-yl]-2-[4-(4-methyl-4H-1,2,4-triazol-3-yl)piperidin-1-yl]benzonitrile], the figures for the IC50 at QPCTL [1], against QPCTL [2] and on QPCT (rhQPCT) were < 100 nM, 1000 to 10000 nM and < 100 nM, respectively.
Turning to `Cn1cnnc1C1CCN(c2c(C#N)cccc2-c2ccc3ocnc3c2)CC1` [Example 15, 3-(1,3-benzoxazol-5-yl)-2-[4-(4-methyl-4H-1,2,4-triazol-3-yl)piperidin-1-yl]benzonitrile], the IC50 on QPCTL [1] is 100 to 1000 nM; on QPCTL [2], 1000 to 10000 nM; at QPCT (rhQPCT), < 100 nM.
For `CN(C)CCOc1ccc(-c2ccc(F)nc2)c(N2CCC(c3nncn3C)CC2)c1C#N` [Example 37, 6-[2-(dimethylamino)ethoxy]-3-(6-fluoropyridin-3-yl)-2-[4-(4-methyl-4H-1,2,4-triazol-3-yl)piperidin-1-yl]benzonitrile], in that order: < 100 nM, < 100 nM and < 100 nM.
The corresponding values for `Cn1cc2c(-c3cccc(C#N)c3N3CCC(c4nncn4C)CC3)cncc2n1` [Example 16, 3-{2-methyl-2H-pyrazolo[3,4-c]pyridin-4-yl}-2-[4-(4-methyl-4H-1,2,4-triazol-3-yl)piperidin-1-yl]benzonitrile] are < 100 nM, 100 to 1000 nM and < 100 nM.
Regarding `Cn1cnnc1C1CCN(c2c(C#N)cccc2-c2ccc(F)cc2)CC1` [Example 96, 4′-fluoro-2-(4-(4-methyl-4H-1,2,4-triazol-3-yl)piperidin-1-yl)-[1,1′-biphenyl]-3-carbonitrile], the results for the IC50 at QPCTL [1], against QPCTL [3] and at QPCT (rhQPCT) were < 100 nM, 1000 to 10000 nM and < 100 nM, respectively.
As to `Cn1cnnc1C1CCN(c2c(-c3ccc(F)nc3)ccc(OC3CC3)c2C#N)CC1` [Example 76, 6-cyclopropoxy-3-(6-fluoropyridin-3-yl)-2-(4-(4-methyl-4H-1,2,4-triazol-3-yl)piperidin-1-yl)benzonitrile], the concentration for half-maximal inhibition (IC50) at QPCTL [1], on QPCTL [3] and on QPCT (rhQPCT) was < 100 nM throughout.
For the molecule `Cn1cnnc1C1CCN(c2c(C#N)cc(Cl)cc2-c2ccc(F)nc2)CC1` [Example 69, 5-chloro-3-(6-fluoropyridin-3-yl)-2-(4-(4-methyl-4H-1,2,4-triazol-3-yl)piperidin-1-yl)benzonitrile], the IC50 on QPCTL [1], against QPCTL [3] and on QPCT (rhQPCT) was < 100 nM each time.
Consider `Cn1cnnc1C1CCN(c2c(C#N)cccc2-c2cncc(Cl)c2)CC1` [Example 115, 3-(5-chloropyridin-3-yl)-2-(4-(4-methyl-4H-1,2,4-triazol-3-yl)piperidin-1-yl)benzonitrile], for which the IC50 is < 100 nM at QPCTL [1], 100 to 1000 nM against QPCTL [3] and < 100 nM on QPCT (rhQPCT).
On to `Cn1cnnc1C1CCN(c2c(-c3ccc(F)nc3)ccc(NC3CC3)c2C#N)CC1` [Example 81, 6-(cyclopropylamino)-3-(6-fluoropyridin-3-yl)-2-(4-(4-methyl-4H-1,2,4-triazol-3-yl)piperidin-1-yl)benzonitrile], for which the IC50 at QPCTL [1], against QPCTL [3] and on QPCT (rhQPCT) was < 100 nM in each case.
